# Experimental data: patent publication US20040208924A1, “Pharmaceutical tablet having a high api content” (priority 2001, published 2004)
# Assays:
# [1] = system: matrix metalloproteinase; settings: statement referring to WO 97/12902 and U.S. Pat. No. 5,981,490; cited from earlier work
# [2] = Compactability (slope of tensile strength versus compression pressure) of API blend compressed on an Instron; type: physicochemical
# Procedure: In order to evaluate the compressibility and compactability of all API lots generated by modifying the crystallization process, a blend of 80% API, 19.5% microcrystalline cellulose and 0.5% magnesium stearate was prepared by mixing in a tumble mixer for 5 minutes. Each mixture was then compressed on an Instron (Universal Stress-Strain Analyzer) using a 0.5 inch diameter tooling (upper and lower punches and die) at a speed of 100 mm/min at compression forces of 5, 10, 15, 20 and 25 kN each for a replicate of three tablets. The tablet dimensions were measured using a digital Vernier calliper and the strength of the tablets were determined using an Erweka hardness tester. The volume of the tablet can be calculated from the tablet dimensions normalized for the true density of the mixture being compressed. The compressibility curves are generated by plotting the solid fraction of the tablet generated at each compression pressure versus the respective compression pressure. The area under such a curve represents the extent of volume reduction. The force required to break the tablets is normalized for the area of the tablet to obtain the tensile strength value. Slopes for profiles of tensile strength versus the compression pressure represent the compactability of the material while the area under the curve of tensile strength versus the solid fraction of the tablets represents the extent of compaction or toughness of the material.
# [3] = Solid state stability of crystal forms; type: physicochemical; settings: out of four crystal structures (forms 4, 5, 6, 7)
# Excerpt: Due to the unique structure of the API material at least four different groups of crystal structures were observed (forms 4, 5, 6, 7) and analyzed by single crystal x-ray. […] Orthorhombic Form 6 consisted of a group of isostructural (1:1) solvates which accommodates solvents such as EtOAc, acetone and MEK. […] An exhaustive study of API crystallization on the feasibility of various solvents, control of polymorphs, and robustness of process concluded that the selected form could be consistently produced and kept stable in iPrOAc (or BuOAc)/Heptane (or Cyclohexane), following which a reproducible crystallization procedure in the iPrOAc/heptane solvent system was developed and implemented. This procedure, associated with the aminolysis of penultimate compound (Chemical Abstracts Systematic Name, (αS)-α-(Benzoylthio)-3,4,4-trimethyl-2,5-dioxo-1-imidazolidinebutanoyl-L-leucyl-N,3-dimethyl-L-valinamide), is successful in purging undesirable side products/impurities such as α,α′-Dithiobis[N-[1-[[[2,2-dimethyl-1-[(methylamino)carbonyl]propyl]amino]-carbonyl]-3-methylbutyl]-3,4,4-trimethyl-2,5-dioxo-1-imidazolidinebutanamide] which is the S,S′-dimer of the API. The crystallization procedure is further described in Table 1.
smiles,measurement,setting,value
"CNC(=O)[C@@H](NC(=O)[C@H](CC(C)C)NC(=O)[C@@H](S)CCN1C(=O)N(C)C(C)(C)C1=O)C(C)(C)C [API, N-[(2S)-2-Mercapto-1-oxo-4-(3,4,4-trimethyl-2,5-dioxo-1-imidazolidinyl)butyl]-L-leucyl-N,3-dimethyl-L-valinamide]",matrix metalloproteinase inhibition,[1],effective matrix metalloproteinase inhibitor
same,product compactability,[2]; 50-g sample recrystallized using 1% AirJet-milled seeds,4.2 kPa/MPa
same,product compactability,[2]; 50-g sample recrystallized using 1% ball-milled seeds,5.9 Kpa/MPa
same,product compactability,[2]; 50-g sample recrystallized using 1% seeds crystallized from a ground seeded batch,5.3 kPa/MPa
same,compactability,"[2]; crystallized with 1% ground seeds, without sonication",10.5 kPa/MPa
"CNC(=O)[C@@H](NC(=O)[C@H](CC(C)C)NC(=O)[C@@H](S)CCN1C(=O)N(C)C(C)(C)C1=O)C(C)(C)C [Form 4, N-[(2S)-2-Mercapto-1-oxo-4-(3,4,4-trimethyl-2,5-dioxo-1-imidazolidinyl)butyl]-L-leucyl-N,3-dimethyl-L-valinamide]",stability of the crystal structure in the solid state,[3],did not transform/decompose to other crystalline structures in the solid state
